Measured values from patent publication US11691992B2 (Anacor Pharmaceuticals, Inc., priority 2017, dated 2023).
Like-named read-outs stand apart in the source and are kept apart here.

Tests used:
Type in all cases: cell-based
[1] = system: IL3000 T. congolense (drug sensitive) strain; test: In vitro Alamar Blue 72 h drug sensitivity assay for T. congolense; settings: Trypanosoma congolense; bloodstream form, 69 h + 3 h resazurin, 34° C.; classes A-C; read-out: IC50: I Org. Growth T. congolense IL-3000, 3 d
Procedure, shortened: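 Bloodstream-form trypanosomes in HMI medium with 20% bovine serum, exposed to compound for 69 h at 34 °C, 5% CO2, then resazurin for 3 h more. Fluorescence read at 536/588 nm. IC50 from 11-point sigmoidal dose-response curves, at least three independent runs.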

[2] = system: bloodstream-form trypanosome T. brucei brucei 427 strain; test: Trypanosoma brucei brucei high-throughput screening assay (resazurin)
Method: Example 105. Trypanosoma brucei brucei High-Throughput Screening Assay Procedure
All experiments were conducted with the bloodstream-form trypanosome T. brucei brucei 427 strain obtained from Seattle Biomedical Research Institute (Seattle, Wash.). Parasites were cultured in T-25 vented cap flasks and kept in humidified incubators at 37° C. and 5% CO2. The parasite culture media was complete HMI-9 medium containing 10% FBS, 10% Serum Plus medium and penicillin/streptomycin. To ensure log growth phase, trypanosomes were sub-cultured at appropriate dilutions every 2-3 days. Approximately 50 microliters of log phase cultures were diluted 1:10 in HMI-9 and 10 μL of the diluted culture was removed and counted using a hemocytometer to determine parasite concentration. Parasites were diluted by addition of an appropriate volume of HMI-9 to achieve a final parasite concentration of 2×10^5/mL. Compounds of the invention to be tested were serially diluted in DMSO and 0.5 μL added to 49.5 μL HMI-9 in triplicate 96-well plates using a Biomek NX liquid handler. Parasites from the diluted stock were added to each well (50 μL) using a Multidrop 384 dispenser to give a final concentration of 1.0×10^5/ml parasites in […] for DMSO. Trypanosomes were incubated with compounds for 72 hrs at 37° C. with 5% CO2. Resazurin (20 μL of 12.5 mg/ml stock) from Sigma-Aldrich was added to each well and plates were incubated for an additional 2-4 hrs. Assay plates were read using an EnVision plate reader at an excitation wavelength of 544 nm and emission of 590 nm. Triplicate data points were averaged to generate sigmoidal dose response curve and determine IC50 values using XLfit curve fitting software from IDBS (Guildford, UK).

[3] = system: promastigote forms of L. major; test: Leishmania major promastigote growth inhibition assay (Alamar Blue); settings: promastigotes, 44 hours + 4 hours Alamar Blue, read-out: IC50: I Org. promastigote Growth L. major, 2 d
Procedure, shortened: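 Early-log L. major promastigotes (5,000/well) in Schneider's medium with 20% FBS incubated with compound 44 h at 28° C; drug solutions in DMSO were 10,000 or 1,000 ng/ml before dispensing. Alamar Blue added 4 h, fluorescence at 560/590 nm gives percent growth inhibition; IC50 determined for compounds inhibiting ≥50%.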

[4] = bloodstream form, 72 hrs incubation, resazurin, read-out: IC50: I Org. Growth T. brucei brucei SBRI 427, 3 d
[5] = 72 h, read-out: IC50: I Org. Growth T. brucei brucei SBRI 427, 3 d [uM]

Structure (SMILES)	IC50 [1] [nM]	IC50 [2, 4] [µM]	IC50 [2, 5] [µM]	IC50 [3] [nM]
O=C(Nc1ccc2c(c1)B(O)OC2)c1cn(-c2ccc(F)cc2)nn1 [Example 60, 1-(4-Fluorophenyl)-N-(1-hydroxy-1,3-dihydrobenzo[c][1,2]oxaborol-6-yl)-1H-1,2,3-triazole-4-carboxamide]	< 100	0.075 to 0.15		
O=C(Nc1ccc2c(c1)B(O)OC2)c1nnn(-c2ccccc2)c1C(F)(F)F [Example 68, N-(1-hydroxy-1,3-dihydrobenzo[c][1,2]oxaborol-6-yl)-1-phenyl-5-(trifluoromethyl)-1H-1,2,3-triazole-4-carboxamide]			0.151 to 10	
Cc1c(C(=O)Nc2ccc3c(c2)B(O)OC3)nnn1-c1ccccc1 [Example 89, A-(1-hydroxy-1,3-dihydrobenzo[c][1,2]oxaborol-6-yl)-5-methyl-1-phenyl-1H-1,2,3-triazole-4-carboxamide]			< 0.075	
Cc1c(C(=O)Nc2ccc3c(c2)B(O)OC3)nnn1-c1ccccn1 [Example 84, N-(1-hydroxy-1,3-dihydrobenzo[c][1,2]oxaborol-6-yl)-5-methyl-1-(pyridin-2-yl)-1H-1,2,3-triazole-4-carboxamide]	< 100	< 0.075		< 600
COc1ccc(-n2nnc(C(=O)Nc3ccc4c(c3)B(O)OC4)c2C)cc1 [Example 91, N-(1-hydroxy-1,3-dihydrobenzo[c][1,2]oxaborol-6-yl)-1-(4-methoxyphenyl)-5-methyl-1H-1,2,3-triazole-4-carboxamide]	100 to 300	< 0.075		< 600
COc1ccc(-n2nnc(C(=O)Nc3ccc4c(c3)B(O)OC4C)c2C)cc1 (stereo not shown) [Example 19, N-(1-hydroxy-3-methyl-1,3-dihydrobenzo[c][1,2]oxaborol-6-yl)-1-(4-methoxyphenyl)-5-methyl-1H-1,2,3-triazole-4-carboxamide]	100 to 300			600 to 2500
Cc1c(C(=O)Nc2ccc3c(c2)B(O)OC3C)nnn1-c1cccnc1 (stereo not shown) [Example 14]	< 100			2510 to 20000
Cc1c(C(=O)Nc2ccc3c(c2)B(O)OC3)nnn1-c1cccnc1 [Example 93, N-(1-hydroxy-1,3-dihydrobenzo[c][1,2]oxaborol-6-yl)-5-methyl-1-(pyridin-3-yl)-1H-1,2,3-triazole-4-carboxamide]	100 to 300			2510 to 20000
Cc1ccc(-n2cc(C(=O)Nc3ccc4c(c3)B(O)OC4)nn2)cc1 [Example 10, N-(1-hydroxy-1,3-dihydrobenzo[c][1,2]oxaborol-6-yl)-1-(p-tolyl)-1H-1,2,3-triazole-4-carboxamide]	< 100			< 600
O=C(Nc1ccc2c(c1)B(O)OC21CCC1)c1cn(-c2ccc(F)cc2)nn1 [Example 7, 1-(4-fluorophenyl)-N-(1-hydroxy-1H-spiro[benzo[c][1,2]oxaborole-3,1′-cyclobutan]-6-yl)-1H-1,2,3-triazole-4-carboxamide]	310 to 100000			2510 to 20000
O=C(Nc1ccc2c(c1)B(O)OC2)c1cn(-c2ccccn2)nn1 [Example 61, N-(1-hydroxy-1,3-dihydrobenzo[c][1,2]oxaborol-6-yl)-1-(pyridin-2-yl)-1H-1,2,3-triazole-4-carboxamide]	< 100	< 0.075		< 600
CC1OB(O)c2cc(NC(=O)c3cn(-c4ccc(F)cc4)nn3)ccc21 (stereo not shown) [Example 5]	100 to 300			600 to 2500
